Like-named read-outs stand apart in the source and are kept apart here.
What was measured:
[1] = system: IRF pathway; assay: STING THP1 reporter assay, IRF pathway (Lucia luciferase); format: cell-based; details: THP1-Dual cells, 10% human plasma, luciferase readout, 100% = 100 μM cGAMP, read-out: THP1 Reporter Assays EC50 IRF3
Description: (§1) STING THP1 Reporter Assay Protocol
(§2) THP1-Dual™ cells were derived from the human THP-1 monocyte cell line by stable integration of two inducible reporter constructs. To this end, THP1-Dual™ cells allow the simultaneous study of the NF-κB pathway, by monitoring the activity of SEAP, and the IRF pathway by assessing the activity of a secreted luciferase (Lucia). Both reporter proteins are readily measurable in the cell culture supernatant when using QUANTI-Blue™, a SEAP detection reagent, and QUANTI-Luc™, a luciferase detection reagent.
(§3) THP1-Dual™ cells induce the activation of NF-κB in response to STING agonists. They also trigger the IRF pathway upon stimulation with STING agonists, such as cGAMP. Here, the THP-1-Dual cells were used to assess STING binders for function on the cellular level.
(§4) Serial dilutions of compounds in DMSO were added to low volume 384 well plates at 100 nl/well using an ECHO acoustic dispenser (Labcyte, model 550) to achieve final starting concentration of 100 μM in cell suspension. THP-1 Dual™ STING reporter cells (Invivogen, Dual cells cat #THPD-nfis) were added to the plates with compounds at 15,000 cells in 10 μL per well in RPMI media (Gibco, cat #11875) containing 10% human plasma in a low volume 384-well black wall clear bottom tissue culture plate (Corning, cat #3542) for SEAP assay and low volume solid white plate (Corning, cat #3826) for luciferase assay. One column of the plate was reserved for treatment with cGAMP at 100 μM for 100% activation calculation and one column for no treatment (DMSO only) for baseline activation. Plates were then incubated in 37 OC incubator at 5% CO2 for 20 hours.
(§5) In the SEAP assay, 5 μl of 2× QuantiBlue (Invivogen, cat #Rep-qb2) is added to 384 well black plates seeded with THP1 cells and incubated at 37° C. for 2 hours. Plates were read on the Envision (Perkin Elmer) at 620 nm wavelength (OD620). In the luciferase assay, 5 μl of Quantiluc (Invivogen, Rep-qlc2) is added to white 384 well plates seeded with THP1 cells and read at 5 minutes on the Envision (Perkin Elmer) using a luminescence protocol (RLU). For both cell lines, 100% activation was determined by value (RLU) of THP-1 Dual STING cells stimulated with 100 μM cGAMP (Invivogen, cat #TLRL-NACGA23-5).

[2] = biological target: T1, STING WT: His-TVMV-S-hSTING(155-341)-H232R (Homo sapiens, UniProt Q86WV6, H232R); assay: STING HTRF competition binding assay, STING WT; details: 20 nM His-tagged STING cytoplasmic domain WT, 200 nM fluorescein-labeled cGAMP analog probe, one hour; read-out: HTRF Binding Assays IC50 WT
T1 construct: STING WT: His-TVMV-S-hSTING(155-341)-H232R
Experimental: (§6) Sting HTRF Binding Assays
(§7) A time resolved FRET-based competition binding assay was used to assess test article binding to STING WT and STING AQ. His-tagged STING cytoplasmic domain (WT or AQ) at a concentration of 20 nM was incubated with 2.5 nM Tb-labeled anti-His antibody, test compound, and fluorescein-labeled cGAMP analog probe (BioLog cat. no. C195) at a concentration of 200 nM (STING WT) or 40 nM (STING AQ) in PBS containing 0.005% Tween-20 and 0.1% BSA for one hour. Fluorescence at 495 nm and 520 nm was measured using an EnVision microplate reader to quantify FRET between Tb-labeled anti-His antibody and fluorescein-labeled probe. Background was defined as the signal obtained in the absence of STING protein, and background subtracted FRET ratios were normalized to the maximum signal obtained in the absence of test compound. These values were converted to a percent inhibition. Percent inhibition was determined for test compounds at 11 concentrations. The IC50, defined as the concentration of competing test compound needed to reduce specific binding of the probe by 50%, was calculated using the 4 parameter logistic equation to fit the data

[3] = biological target: T2, STING AQ: His-TVMV-S-hSTING(155-341)-G230A-R293Q (Homo sapiens, UniProt Q86WV6, G230A/H232R/R293Q); assay: STING HTRF competition binding assay, STING AQ; details: 20 nM His-tagged STING cytoplasmic domain AQ, 40 nM fluorescein-labeled cGAMP analog probe, one hour; read-out: HTRF Binding Assays IC50 AQ
T2 construct: STING AQ: His-TVMV-S-hSTING(155-341)-G230A-R293Q
Experimental: as §6, §7

[4] = system: NF-κB pathway; assay: STING THP1 reporter assay, NF-κB pathway (SEAP); format: cell-based; details: THP1-Dual cells, 10% human plasma, SEAP readout, 100% = 100 μM cGAMP, read-out: THP1 Reporter Assays EC50 NFkB
Description: as §1, §2, §3, §4, §5

T1 sequence (Q86WV6 with tags, fused parts or gaps H232R): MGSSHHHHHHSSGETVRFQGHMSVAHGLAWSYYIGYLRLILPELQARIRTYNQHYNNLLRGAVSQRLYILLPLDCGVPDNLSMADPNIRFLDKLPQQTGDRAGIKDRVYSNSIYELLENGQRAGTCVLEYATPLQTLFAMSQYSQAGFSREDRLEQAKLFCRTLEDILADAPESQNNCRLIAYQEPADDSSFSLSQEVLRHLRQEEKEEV
T2 sequence (Q86WV6 with tags, fused parts or gaps G230A/H232R/R293Q): as the sequence (Q86WV6 with tags, fused parts or gaps H232R) above, with G99A, R162Q counted along it

Row | Compound | EC50 ([1]; 20 hours) | IC50 [2] | IC50 [3] | EC50 ([4]; 20 hours) | EC50 ([1]; Homo sapiens, THP-1, 20 h) | EC50 ([4]; Homo sapiens, THP-1, 20 h)
1 | NC(=O)c1cc([C@@H]2O[C@@H]3COP(=O)(S)O[C@H]4[C@@H](F)[C@H](n5cnc6c(N)ncnc65)O[C@@H]4COP(=O)(S)O[C@@H]2[C@@H]3O)[nH]n1 (single isomer, unassigned) [Example 1-1] | > 100000 nM | 2400 nM | 90 nM | > 100000 nM |  | 
2 | NC(=O)c1cc([C@@H]2O[C@@H]3COP(=O)(S)O[C@H]4[C@@H](F)[C@H](n5cnc6c(N)ncnc65)O[C@@H]4COP(=O)(S)O[C@@H]2[C@@H]3O)[nH]n1 (single isomer, unassigned) [Example 1-2] | > 100000 nM | 910 nM | 30 nM | > 100000 nM |  | 
3 | NC(=O)c1cc([C@@H]2O[C@@H]3COP(=O)(S)O[C@H]4[C@@H](F)[C@H](n5cnc6c(N)ncnc65)O[C@@H]4COP(=O)(S)O[C@@H]2[C@@H]3O)[nH]n1 (single isomer, unassigned) [Example 1-3] | 4000 nM | 50 nM | 10 nM | 6800 nM |  | 
4 | NC(=O)c1cc([C@@H]2O[C@@H]3COP(O)(=S)O[C@H]4[C@@H](F)[C@H](n5cnc6c(N)ncnc65)O[C@@H]4COP(O)(=S)O[C@@H]2[C@@H]3O)[nH]n1 (stereo partly shown) [Example 1-4] |  | 680 nM | 40 nM |  | > 100000 nM | > 100000 nM

— patent US11667663B2, “Cyclic dinucleotides as anticancer agents” (BRISTOL-MYERS SQUIBB COMPANY, priority 2017, dated 2023)
